Results as given in patent publication US10092575B2, “Substituted thiophene- and furan-fused azolopyrimidine-5-(6H)-one compounds” (DART NEUROSCIENCE (CAYMAN) LTD., priority 2012, dated 2018).

These compounds were tested against human PDE1b enzyme (Homo sapiens (Human), UniProt Q01064) (assay: PDE1b inhibitory assay (IMAP TR-FRET)). Conditions: not given.

Row | SMILES | EC50 [nM]
1 | COc1ccc(Cn2c(=O)n3ncnc3c3c(CN4C[C@@H](C)O[C@@H](C)C4)csc32)cc1 [Example 78, 9-(((2S,6R)-2,6-Dimethylmorpholino)methyl)-6-(4-methoxybenzyl)thieno[3,2-e][1,2,4]triazolo[1,5-c]pyrimidin-5(6H)-one] | 100 to 1000
2 | COc1ccc(Cn2c(=O)n3ncnc3c3c4c(sc32)N(Cc2cccc(Cl)c2)CCC4)cc1OC [Example 155, 8-(3-Chlorobenzyl)-6-(3,4-dimethoxybenzyl)-8,9,10,11-tetrahydropyrido[3′,2′:4,5]thieno[3,2-e][1,2,4]triazolo[1,5-c]pyrimidin-5(6H)-one] | 1000 to 10000
3 | O=c1n(Cc2cccc(Cl)c2)c2sccc2c2ncnn12 [Example 2, 6-(3-Chlorobenzyl)thieno[3,2-e][1,2,4]triazolo[1,5-c]pyrimidin-5(6H)-one] | 1000 to 10000
4 | COc1ccc(Cn2c(=O)n3ncnc3c3c4c(sc32)CN(C(=O)C2CCNC2)CC4)cc1 (centres unmarked) [Example 181, 6-(4-Methoxybenzyl)-9-(pyrrolidine-3-carbonyl)-8,9,10,11-tetrahydropyrido[4′,3′:4,5]thieno[3,2-e][1,2,4]triazolo[1,5-c]pyrimidin-5(6H)-one] | 100 to 1000
5 | COc1ccc(Cn2c(=O)n3ncnc3c3cc(CN4CCC(Oc5ccncc5)CC4)sc32)cc1 [Example 185, 6-(4-Methoxybenzyl)-8-((4-(pyridin-4-yloxy)piperidin-1-yl)methyl)thieno[3,2-e][1,2,4]triazolo[1,5-c]pyrimidin-5(6H)-one] | 100 to 1000
6 | COc1ccc(Cn2c(=O)n3ncnc3c3c4c(sc32)CN(C(=O)C2CCN(C)C2)CC4)cc1 (centres unmarked) [Example 163, 6-(4-Methoxybenzyl)-9-(1-methylpyrrolidine-3-carbonyl)-8,9,10,11-tetrahydropyrido[4′,3′:4,5]thieno[3,2-e][1,2,4]triazolo[1,5-c]pyrimidin-5(6H)-one] | 100 to 1000
7 | COc1ccc(Cn2c(=O)n3ncnc3c3cc(CN4CC(Oc5ccccc5F)C4)sc32)cc1 [Example 190, 8-((3-(2-Fluorophenoxy)azetidin-1-yl)methyl)-6-(4-methoxybenzyl)thieno[3,2-e][1,2,4]triazolo[1,5-c]pyrimidin-5(6H)-one] | 1000 to 10000
8 | Cc1ccc(Cn2c(=O)n3ncnc3c3c4c(sc32)COCC4)cc1 [Example 88, 6-(4-Methylbenzyl)-6,8,10,11-tetrahydro-5H-pyrano[4′,3′:4,5]thieno[3,2-e][1,2,4]triazolo[1,5-c]pyrimidin-5-one] | 100 to 1000
9 | O=c1n(Cc2ccc(-c3ccccc3)cc2)c2sc(Cc3ccccc3)cc2c2ncnn12 [Example 18, 6-([1,1′-Biphenyl]-4-ylmethyl)-8-benzylthieno[3,2-e][1,2,4]triazolo[1,5-c]pyrimidin-5(6H)-one] | 1000 to 10000
10 | O=c1n(Cc2ccc(OC(F)(F)F)cc2)c2sc3c(c2c2ncnn12)CCOC3 [Example 96, 6-(4-(Trifluoromethoxy)benzyl)-6,8,10,11-tetrahydro-5H-pyrano[4′,3′:4,5]thieno[3,2-e][1,2,4]triazolo[1,5-c]pyrimidin-5-one] | 1000 to 10000
11 | COc1ccc(Cn2c(=O)n3ncnc3c3cc(-c4c(C)noc4C)sc32)cc1 [Example 42, 8-(3,5-Dimethylisoxazol-4-yl)-6-(4-methoxybenzyl)thieno[3,2-e][1,2,4]triazolo[1,5-c]pyrimidin-5(6H)-one] | 100 to 1000
12 | COc1ccc(Cn2c(=O)n3ncnc3c3c4c(sc32)CN(CC2CNCCO2)CC4)cc1 (centres unmarked) [Example 180, 6-(4-Methoxybenzyl)-9-(morpholin-2-ylmethyl)-8,9,10,11-tetrahydropyrido[4′,3′:4,5]thieno[3,2-e][1,2,4]triazolo[1,5-c]pyrimidin-5(6H)-one] | 100 to 1000
13 | Cc1cc2c(s1)n(Cc1ccc(Cl)cc1)c(=O)n1ncnc21 [Example 15, 6-(4-Chlorobenzyl)-8-methylthieno[3,2-e][1,2,4]triazolo[1,5-c]pyrimidin-5(6H)-one] | 100 to 1000
14 | COc1ccc(Cn2c(=O)n3ncnc3c3c4c(sc32)N(C(=O)c2ccccc2)CCC4)cc1OC [Example 176, 8-Benzoyl-6-(3,4-dimethoxybenzyl)-8,9,10,11-tetrahydropyrido[3′,2′:4,5]thieno[3,2-e][1,2,4]triazolo[1,5-c]pyrimidin-5(6H)-one] | 1000 to 10000

Same assay, conditions: negative log of half-maximal molar inhibitory concentration; 200 nM FAM-cAMP; reported as ranges

Row | SMILES | PDE1b (pEC50)
15 | COc1ccc(Cn2c(=O)n3ncnc3c3c(C)c(CN4CCN(C(C)=O)CC4)sc32)cc1 [Example 51, 8-((4-Acetylpiperazin-1-yl)methyl)-6-(4-methoxybenzyl)-9-methylthieno[3,2-e][1,2,4]triazolo[1,5-c]pyrimidin-5(6H)-one] | >7
16 | COc1ccc(Cn2c(=O)n3ncnc3c3c4c(sc32)N(CC2CCOCC2)CCC4)cc1 [Example 148, 6-(4-Methoxybenzyl)-8-((tetrahydro-2H-pyran-4-yl)methyl)-8,9,10,11-tetrahydropyrido[3′,2′:4,5]thieno[3,2-e][1,2,4]triazolo[1,5-c]pyrimidin-5(6H)-one] | >7
17 | COc1ccc(Cn2c(=O)n3ncnc3c3cc(CN4CCOCC4)sc32)cc1 [Example 31, 6-(4-Methoxybenzyl)-8-(morpholinomethyl)thieno[3,2-e][1,2,4]triazolo[1,5-c]pyrimidin-5(6H)-one] | >7
18 | COc1ccc(Cn2c(=O)n3ncnc3c3c(C)c(CNCc4cccnc4)sc32)cc1 [Example 52, 6-(4-Methoxybenzyl)-9-methyl-8-(((pyridin-3-ylmethyl)amino)methyl)thieno[3,2-e][1,2,4]triazolo[1,5-c]pyrimidin-5(6H)-one] | >7
19 | COc1ccc(Cn2c(=O)n3ncnc3c3c4c(sc32)CN(CC2CCCOC2)CC4)c(F)c1 (centres unmarked) [Example 142, 6-(2-Fluoro-4-methoxybenzyl)-9-((tetrahydro-2H-pyran-3-yl)methyl)-8,9,10,11-tetrahydropyrido[4′,3′:4,5]thieno[3,2-e][1,2,4]triazolo[1,5-c]pyrimidin-5(6H)-one] | >7
20 | COc1ccc(Cn2c(=O)n3ncnc3c3c(C)c(CN4CCOCC4C)sc32)cc1 (centres unmarked) [Example 71, 6-(4-Methoxybenzyl)-9-methyl-8-((3-methylmorpholino)methyl)thieno[3,2-e][1,2,4]triazolo[1,5-c]pyrimidin-5(6H)-one] | >7
21 | COc1ccc(Cn2c(=O)n3ncnc3c3cc(CN4CCN5C(=O)OCC5C4)sc32)cc1 (centres unmarked) [Example 40, 7-((6-(4-Methoxybenzyl)-5-oxo-5,6-dihydrothieno[3,2-e][1,2,4]triazolo[1,5-c]pyrimidin-8-yl)methyl)tetrahydro-1H-oxazolo[3,4-a]pyrazin-3(5H)-one] | >7
22 | COc1ccc(Cn2c(=O)n3ncnc3c3c(C)c(CN4CCNC(=O)C4)sc32)cc1 [Example 53, 6-(4-Methoxybenzyl)-9-methyl-8-((3-oxopiperazin-1-yl)methyl)thieno[3,2-e][1,2,4]triazolo[1,5-c]pyrimidin-5(6H)-one] | >7
23 | COc1ccc(Cn2c(=O)n3ncnc3c3c4c(sc32)CN(C(=O)C2CCOC2)CC4)cc1 (centres unmarked) [Example 170, 6-(4-Methoxybenzyl)-9-(tetrahydrofuran-3-carbonyl)-8,9,10,11-tetrahydropyrido[4′,3′:4,5]thieno[3,2-e][1,2,4]triazolo[1,5-c]pyrimidin-5(6H)-one] | >7
24 | O=C(C1CC1)N1CCc2c(sc3c2c2ncnn2c(=O)n3Cc2ccc(Cl)cc2F)C1 [Example 164, 6-(4-Chloro-2-fluorobenzyl)-9-(cyclopropanecarbonyl)-8,9,10,11-tetrahydropyrido[4′,3′:4,5]thieno[3,2-e][1,2,4]triazolo[1,5-c]pyrimidin-5(6H)-one] | >7
25 | COc1ccc(Cn2c(=O)n3ncnc3c3c4c(sc32)CN(CCCSC)CC4)cc1 [Example 112, 6-(4-Methoxybenzyl)-9-(3-(methylthio)propyl)-8,9,10,11-tetrahydropyrido[4′,3′:4,5]thieno[3,2-e][1,2,4]triazolo[1,5-c]pyrimidin-5(6H)-one] | >7
26 | COc1ccc(Cn2c(=O)n3ncnc3c3c4c(sc32)CN(C(=O)C2CCOC2)CC4)c(F)c1 (centres unmarked) [Example 167, 6-(2-Fluoro-4-methoxybenzyl)-9-(tetrahydrofuran-3-carbonyl)-8,9,10,11-tetrahydropyrido[4′,3′:4,5]thieno[3,2-e][1,2,4]triazolo[1,5-c]pyrimidin-5(6H)-one] | >7
27 | COc1ccc(Cn2c(=O)n3ncnc3c3c4c(sc32)CN(CCCS(C)(=O)=O)CC4)cc1 [Example 118, 6-(4-Methoxybenzyl)-9-(3-(methylsulfonyl)propyl)-8,9,10,11-tetrahydropyrido[4′,3′:4,5]thieno[3,2-e][1,2,4]triazolo[1,5-c]pyrimidin-5 (6H)-one] | >7
28 | COc1ccc(Cn2c(=O)n3ncnc3c3c4c(sc32)CN(C(=O)[C@@H]2CCOC2)CC4)cc1 [Example 169, (R)-6-(4-Methoxybenzyl)-9-(tetrahydrofuran-3-carbonyl)-8,9,10,11-tetrahydropyrido[4′,3′:4,5]thieno[3,2-e][1,2,4]triazolo[1,5-c]pyrimidin-5(6H)-one] | >7
29 | COc1ccc(Cn2c(=O)n3ncnc3c3c(C)c(CN4CCN5CCC[C@H]5C4)sc32)cc1 [Example 75, (S)-8-((Hexahydropyrrolo[1,2-a]pyrazin-2(1H)-yl)methyl)-6-(4-methoxybenzyl)-9-methylthieno[3,2-e][1,2,4]triazolo[1,5-c]pyrimidin-5(6H)-one] | >7
30 | COc1ccc(Cn2c(=O)n3ncnc3c3cc(CN4CCC(N5CCOCC5)CC4)sc32)cc1 [Example 191] | >7
31 | COc1ccc(Cn2c(=O)n3ncnc3c3c(C)c(CN(C)CC4CCOC4)sc32)cc1 (centres unmarked) [Example 59, 6-(4-Methoxybenzyl)-9-methyl-8-((methyl((tetrahydrofuran-3-yl)methyl)amino)methyl)thieno[3,2-e][1,2,4]triazolo[1,5-c]pyrimidin-5(6H)-one] | >7
32 | COc1ccc(Cn2c(=O)n3ncnc3c3c4c(sc32)CN(Cc2ccncn2)CC4)cc1 [Example 119, 6-(4-Methoxybenzyl)-9-(pyrimidin-4-ylmethyl)-8,9,10,11-tetrahydropyrido[4′,3′:4,5]thieno[3,2-e][1,2,4]triazolo[1,5-c]pyrimidin-5(6H)-one] | >7
